Data set [1] concerns Human immunodeficiency virus 1. Description: Compound was tested for the drug concentration which reduces viral antigen production by 50%. It is filed as functional, organism-based.
Data set [2] can be described thus: SI (selectivity index) is the ratio of TC50 to EC50. Format: functional.
Data set [3] in a line: Compound was tested for the drug concentration which reduces the viability of uninfected C8166 cells by 50%. Format: cell-based. The following applies: human, read-out: TC50 (the source's name).

SMILES strings stand for the structures.

This note sets out measurements from ChEMBL document CHEMBL1129141, “Synthesis, characterization, and anti-HIV activity of some 2-p-X-phenyl-1,3-N,N-diphenyl-amidines” (Bioorg Med Chem Lett, 1996).

One may read the EC50 as the concentration at which the effect is half-maximal. A low value points to higher potency in that assay.

On to `Cc1cn([C@H]2C[C@H](N=[N+]=[N-])[C@@H](CO)O2)c(=O)[nH]c1=O` [ZIDOVUDINE], for which it took 0.016 µM to reach a half-maximal effect in data set [1] (EC50). Further, the SI in data set [2] is greater than 6. In data set [3], the CC50 was greater than 1000 µM.
`O=[N+]([O-])c1ccc(/C(=N/c2ccccc2)Nc2ccccc2)cc1` showed an EC50 in data set [1] of 20 µM. Also, in data set [2], the SI was 4. Besides, the CC50 in data set [3] worked out at 80 µM.
On the same counts, the results for `Clc1ccc(/C(=N/c2ccccc2)Nc2ccccc2)cc1` are 8 µM, 125 and 1000 µM.
For the compound `Brc1ccc(/C(=N/c2ccccc2)Nc2ccccc2)cc1`, the EC50 in data set [1] is 100 µM. For the same compound, in data set [2], the SI was found to be 2. Besides, in data set [3], the CC50 came out at 200 µM.
`c1ccc(/N=C(\Nc2ccccc2)c2ccccc2)cc1` had an EC50 in data set [1] greater than 400 µM. Besides, in data set [2], the SI was less than 1. The CC50 in data set [3] was found to be 400 µM.
For the compound `COc1ccc(/C(=N/c2ccccc2)Nc2ccccc2)cc1`, the EC50 in data set [1] is greater than 80 µM. Also, the SI in data set [2] was less than 1. Moreover, the CC50 in data set [3] was found to be 80 µM.
For the compound `Cc1ccc(/C(=N/c2ccccc2)Nc2ccccc2)cc1`, the EC50 in data set [1] was greater than 500 µM. Moreover, the SI in data set [2] was less than 1. The CC50 in data set [3] was greater than 500 µM.
